Source: patent US20020165221A1, “Mediators of hedgehog signaling pathways, compositions and uses related thereto” (priority 2000, published 2002)

How the values were obtained:
Hedgehog pathway = test: Gli-Luc assay (Hedgehog-responsive Luciferase reporter), 10T1/2(s12) cells with OCT-SHH; format: cell-based; details: OCT-SHH 0.3 μg/ml
Experimental: Compounds to be tested are dissolved in DMSO to a concentration of 10 MM, and stored at −20° C. To activate the Hedgehog pathway in the assay cells, an octylated (lipid-modified) form of the N-terminal fragment of the Sonic Hedgehog protein (OCT-SHH) is used. This N-terminal SHH fragment is produced bacterially.
Compounds may be tested in the “Gli-Luc” assay below, using the cell line 10T(s12), wherein the cells contain a Hedgehog-responsive reporter construct utilizing Luciferase as the reporter gene. In this way, Hedgehog pathway signaling activity can be measured via the Gli-Luc response.
10t1/2(s12) cells are plated in a 96-well micro-titer plate (MTP) at 20,000 cells/well in full medium [DMEM with 10% FBS]. Then plates are placed in the incubator for incubation overnight (O/N), at 37° C. and 5% CO2. After 24 h, the medium is replaced with Luciferase-assay medium (DMEM with 0.5% FBS). Compounds are thawed and diluted in assay medium at 3:1000 (about 300-fold) resulting in a starting concentration of about 30 μM.
Subsequently, 150 μl of each 30 μM sample is added to the first wells (in triplicate). The MTP samples are then diluted at 3-fold dilutions to a total of seven wells, ultimately resulting in a regiment of seven dilutions in triplicate, for each compound. Next, the protein ligand OCT-SHH is diluted in Luciferase-assay medium and added to each well at a final concentration of 0.3 μg/ml. Plates are then returned to the incubator for further incubation O/N, at 37° C. and 5% CO2. After about 24 h, plates are removed from the incubator and the medium is aspirated/discarded. Wells are washed once with assay buffer [PBS +1 mM Mg^2+and 1 mM Ca^2+]. Then 50 μl of assay buffer is added to each well. The Luciferase assay reagent is prepared as described by the vendor (LucLite kit from Packard), and 50 μl is added to each well. Plates are incubated at room temperature (RT) for about 30 minutes after which the signals are read, again at RT, on a Topcount (Packard).

[1] = tested on: Ptc-null cells (gli-1 mRNA, Patched pathway); test: Ptc-null assay: gli-1 mRNA by RT-PCR and quantitative real-time PCR; format: cell-based, mouse; details: 3 days, 1 μM D
Experimental: Ptc-null cells were cultured for 3 days in the presence of vehicle; jervine, a known Patched pathway antagonist (i) used here as a positive control; or 1 μM of compound D. Total ribonucleic acid (RNA) was isolated from the cells and used for reverse transcriptase-polymerase chain reaction (RT-PCR). […] The gli-1 and actin mRNA samples were then loaded on 1.5% agarose gel and were detected by staining with ethidium bromide. The same samples were analyzed by the quantitative real-time polymerase chain reaction method to quantify the levels of gli-1 MRNA.

[2] = tested on: Patched pathway (ptc-lacZ reporter, Shh-induced BCC-like structures); test: Embryonic mouse skin punch assay: prolonged exposure to D; format: cell-based; details: Shh-treated skin punches, 6 days
Text: A novel cell culture assay was established to determine the effects of D on activation of the Patched pathway in skin. In this system, activation of the Patched pathway results in increased expression of the ptc gene.
To monitor the activity of the Patched pathway in embryonic skin, we cultured pieces of skin from transgenic Patched pathway reporter mice. These mice were genetically engineered to harbor a foreign gene (lacZ). The lacZ gene encodes a bacterial beta-galactosidase. The gene was inserted in the ptc locus but allowed for normal ptc function. Ptc activation in response to Shh-induced Patched pathway activation can then be monitored by the production of the lacZ gene product, beta-galactosidase, which is detectable by the enzymatic conversion of the substrate X-gal into a blue-colored reaction product.
Day 17.5 embryonic skin was explanted as 2 mm circular punches from these transgenic reporter mice and cultured for 5 to 7 days in the presence of Shh protein (FIG. 34). […] To test the effect of D, skin punches were cultured for 6 days in the presence of both Shh protein and D (FIG. 35).

[3] = tested on: Patched pathway (ptc-lacZ reporter); test: Embryonic mouse skin punch assay: short-term pretreatment with D; format: cell-based; details: pretreated with D at 10, 20 and 50 μM for 5 hours, then Shh 6 days
Experimental: Transgenic mouse-derived skin punches were treated with vehicle or D for 5 hours in the absence of Shh. After the pretreatment, the vehicle or D was removed. The skin punches were washed twice and then cultured in the presence of Shh for 6 days. At the end of the experiment, the skin punches were fixed and stained with X-gal to determine Patched pathway activity.

[4] = tested on: Shh-induced BCC-like structures; test: Embryonic mouse skin punch assay: long-term treatment of pre-existing BCC-like structures; format: cell-based
Experimental: Day 17.5 embryonic skin punches from transgenic Patched pathway reporter mice were cultured in the presence of Shh protein for 7 days to allow for the development of BCC-like structures. The Shh protein was removed at the end of the 7 days. The cultures were then exposed to Shh protein plus either vehicle or D for 3 days. The cultures were analyzed histologically after 10 days to assess the formation of BCC-like structures that are indicative of activation of the Patched pathway.
One possible mechanism for D-induced regression of BCC-like structures may be apoptosis of the activated cells. To investigate this possibility, parallel explants were exposed to 5 μM D for 2 days and were then stained by the terminal deoxynucleotidyltransferase mediated d-UTP nick end-labeling (TUNEL) method, which is used to detect apoptotic nuclei.

[5] = tested on: Patched pathway (X-gal, gli-1 mRNA, BCC-like structures); test: Embryonic mouse skin punch assay: short-term treatment of pre-existing BCC-like structures; format: cell-based
Experimental: Day 17.5 embryonic skin punches from transgenic Patched pathway reporter mice were cultured in the presence of Shh protein for 7 days. The Shh protein was removed at the end of the 7 days. The skin punches were then exposed to vehicle or 1 or 5 μM D for 5 hours on days 7 and 9. After each exposure to vehicle or D, the vehicle or D was washed off and the skin punches were cultured again in the presence of Shh protein. Cultures were analyzed by X-gal staining after 10 days in vitro to assess the activity of the Patched pathway.

[6] = tested on: Patched pathway / ultraviolet radiation-induced BCC tumors; test: Adult BCC mouse skin punch assay (UV-irradiated Ptc heterozygous transgenic mice); format: cell-based
Experimental: Ptc heterozygous transgenic mice were irradiated 3 times weekly for 6 months, during which time many small, and often microscopic, BCC tumors developed. Four-mm diameter skin punch explants, presumably containing BCC structures, were cultured for 6 days in the presence of vehicle, the positive control […]), or 5 μM D. At the end of the experiment, the explants were analyzed by X-gal staining to detect the level of Patched pathway activity, by histology to determine the effect of treatment on the morphology of ultraviolet radiation-induced BCCs, and by quantifying the level of gli-1 mRNA expression to characterize the extent of pathway inhibition.

[7] = tested on: GLI-1 expression in human BCC; test: Human BCC explant culture, quantitative in situ hybridization; format: cell-based; details: 10 μM D, 3 days, vs vehicle
Experimental: Specimens obtained from surgical procedures (such as Mohs surgery or curettage) were cultured on fresh, living, day 17 embryonic mouse dermis from which all epidermal cells have been removed by digestion using dispase. Since dispase treatment digests basement membrane components, Matrigel, a commercially available basement membrane preparation, was applied between the dermis and BCC. Cultures were assembled on top of a plastic grid and incubated for 3 days (with or without D at a concentration of 10 μM) in a medium suitable for the long-term culture of human skin. After culture, the samples were processed for routine histology and subjected to quantitative in situ hybridization. Briefly, 7μm sections of paraformaldehyde-fixed, paraffin-embedded tissue containing large basal cell islands were cleared, re-hydrated, digested with proteinase K, acetylated and hybridized with [^33P]- labeled RNA probes overnight. After high stringency post-hybridization washes, slides were exposed to a PhosphorImager screen in the dark at room temperature for 4-7 days. After developing, the [^33P]-signal was scanned using a Storm Scanner (Molecular Dynamics). Individual basal cell islands were selected and the signal quantified and expressed in average counts/pixel using ImageQuant 1.0 software.

[8] = short-term treatment, 5 hours on days 7 and 9

- IC50 (Hedgehog pathway): < 1000 nM
- Patched pathway activity (lacZ reporter enzyme activity) ([2]; 0.01 to 1 μM D): dose-dependent decrease
SMILES: COc1cccc(CN(C(=O)CC(C)(C)C)C2CC(C(=O)N3CCNCC3)N(Cc3ccc4c(c3)OCO4)C2)c1 (centres unmarked) [Compound D]
- gli-1 mRNA levels (quantitative real-time PCR) [1]: downregulated
- expression of gli-1 mRNA (RT-PCR, agarose gel) ([1]; vs vehicle): significantly decreased
- X-gal staining ([2]; 0.2 μM D, vs Shh alone): decreased
- formation of BCC-like structures ([2]; histology): completely blocked
- integrity of normal skin cells ([2]; histology): without affecting the integrity of normal skin cells
- inhibition of Shh protein-induced upregulation of the Patched pathway (X-gal staining) [3]: complete inhibition
- number of apoptotic nuclei within BCC-like structures (TUNEL) ([4]; 5 μM D, 2 days, vs vehicle): significantly higher
- general cytotoxic effects on skin cells (histology) ([4]; D 1 or 5 μM, 3 days): did not appear to have general cytotoxic effects
- size and number of Shh-induced BCC-like structures ([4]; pre-existing structures, D 1 or 5 μM, 3 days, vs vehicle): significantly reduced
- regression of existing Shh-induced BCC-like structures ([5]; 1 and 5 μM D for 5 hours on days 7 and 9): caused the regression
- amount of X-gal staining ([5]; 1 or 5 μM D for 5 hours on days 7 and 9): reduced
- GAPDH mRNA levels (general cytotoxicity) [5, 8]: relatively constant
- gli-1 transcription (gli-1 mRNA levels) [5, 8]: completely downregulated
- number and size of established BCC structures (X-gal staining) ([6]; 5 μM D, 6 days, vs vehicle): decreased
- level of gli-1 mRNA ([6]; D 1 and 5 μM, vs vehicle): significantly inhibited
- regression of ultraviolet radiation-induced BCC tumors (histology) ([6]; D, 6 days, vs vehicle): induced the regression
- levels of housekeeping GAPDH (non-specific cytotoxicity) ([6]; treated vs vehicle): no significant difference
- level of GLI-1 expression (quantitative in situ hybridization) [7]: greatly reduced
